The record followed here is PubChem BioAssay AID504814 (The Scripps Research Institute Molecular Screening Center, 2011).

Active and inactive are the calls of the source.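 How the source made its calls: active means EC50 of 10 µM or lower; inactive means EC50 above 10 µM.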

One may read the EC50 as the concentration giving half of the maximal effect.

The target of this test is Caspase-7 (Homo sapiens) (UniProt P55210). In words: procaspase-7 activation by procaspase-3 probe candidates, late-stage follow-up, selectivity assay for procaspase-3 activator project, biochemical, absorbance, PC-7 D3A triple mutant, powder samples (AID 504814). To be noted: recombinant procaspase-7 D3A, Ac-DEVD-pNA absorbance.
Chain of Caspase-7 (Homo sapiens) (P55210 whole entry D23A/D198A/D206A): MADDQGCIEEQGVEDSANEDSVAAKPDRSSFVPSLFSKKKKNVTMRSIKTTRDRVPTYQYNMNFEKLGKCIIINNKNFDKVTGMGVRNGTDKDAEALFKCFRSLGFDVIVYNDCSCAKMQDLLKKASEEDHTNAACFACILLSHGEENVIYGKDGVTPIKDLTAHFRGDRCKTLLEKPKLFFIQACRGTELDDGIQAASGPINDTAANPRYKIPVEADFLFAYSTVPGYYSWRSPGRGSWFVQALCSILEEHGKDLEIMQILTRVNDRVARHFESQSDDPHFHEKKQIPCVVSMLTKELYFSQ
As to `COC(=O)c1ccccc1NCc1cc(=O)oc2cc(O)c(O)cc12`, the EC50 is > 85.3 µM (inactive).

In the case of `CC(NC(=O)c1cc2cc([N+](=O)[O-])ccc2oc1=O)C1CCCO1` (stereo not given), the EC50 result was “inactive”.

In the case of `CC(=O)Oc1cccc2c1C(=O)c1c(OC(C)=O)cc(C(=O)O)cc1C2=O`, the EC50 result was “inactive”.

For `COc1ccccc1Nc1nc2c(C)cccc2cc1C#N`, the EC50 is > 85.3 µM (inactive).

For the compound `C=CCn1c(=NC(=O)c2cc(-c3cccs3)nc3ccccc23)sc2cc(S(N)(=O)=O)ccc21`, the EC50 is 7.68 µM.
